This test deals with T1, human PAR-2 (hPAR-2) receptor (Homo sapiens, UniProt P55085).
T1 construct: expressed in HEK-293 cells in an endogenous manner; endogenous in cells; host or cells: HEK-293
T1 sequence (P55085 26-397): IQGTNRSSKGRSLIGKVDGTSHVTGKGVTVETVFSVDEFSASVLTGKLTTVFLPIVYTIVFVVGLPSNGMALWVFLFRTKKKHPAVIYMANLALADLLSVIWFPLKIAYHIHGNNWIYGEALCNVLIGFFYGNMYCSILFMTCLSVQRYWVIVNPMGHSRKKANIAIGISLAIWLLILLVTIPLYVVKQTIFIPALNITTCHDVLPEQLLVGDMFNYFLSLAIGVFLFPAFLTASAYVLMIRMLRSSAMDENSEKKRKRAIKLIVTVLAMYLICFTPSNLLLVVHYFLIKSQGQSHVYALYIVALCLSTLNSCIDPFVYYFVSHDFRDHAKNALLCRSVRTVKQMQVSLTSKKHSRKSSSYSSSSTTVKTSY
Description: In vitro human PAR-2 functional antagonist activity using calcium assays. Format: cell-based. Particulars: hPAR-2 endogenously expressed in HEK-293 cells; stimulated by 2-Furoyl-LIGRLO-NH2 peptide; Fluo4AM intracellular calcium, FLIPR Tetra. The gist of the method:
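HEK-293 cells with endogenous hPAR-2 were loaded with Fluo4AM and read for intracellular Ca2+ on FLIPR. After 10 min with compound alone, cells were stimulated with 2-Furoyl-LIGRLO-NH2 at the concentration giving 80% of maximal response. Inhibition was then recorded over 5 min relative to buffer and agonist-only signals.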

Take `Cc1ccc(N2CC(C)(C)c3nc(C(=O)N4CCN(c5cc(C)c(C(=O)O)c(C)n5)CC4(C)C)ccc32)cc1F` [Example 85, 6-(4-(1-(3-fluoro-4-methylphenyl)-3,3-dimethyl-2,3-dihydro-1H-pyrrolo[3,2-b]pyridine-5-carbonyl)-3,3-dimethylpiperazin-1-yl)-2,4-dimethylnicotinic acid]: the IC50 was below 500 nM.

As to `CC1(C)CC2(CN(c3ccc(F)c(F)c3)c3ncc(C(=O)N4CCNC(=O)C4(C)C)nc32)C1` [Example 282, 4-(5′-(3,4-difluorophenyl)-3,3-dimethyl-5′,6′-dihydrospiro[cyclobutane-1,7′-pyrrolo[2,3-b]pyrazine]-2′-carbonyl)-3,3-dimethylpiperazin-2-one], the concentration for half-maximal inhibition (IC50) is below 500 nM. The value for `CCC1(C)CN(c2ccc(Cl)c(F)c2)c2ccc(C(=O)N3CCNC(=O)C3(C)C)nc21` (stereo not drawn) [Example 53, 4-(1-(4-chloro-3-fluorophenyl)-3-ethyl-3-methyl-2,3-dihydro-1H-pyrrolo[3,2-b]pyridine-5-carbonyl)-3,3-dimethylpiperazin-2-one] was below 500 nM. With `CC1(C)CN(C(=O)c2ccc3c(n2)C2(CCCC2)CN3c2ccc(Cl)c(F)c2)CCC1C(=O)O` (stereo not drawn) [Example 6, 1-(1′-(4-chloro-3-fluorophenyl)-1′,2′-dihydrospiro[cyclopentane-1,3′-pyrrolo[3,2-b]pyridine]-5′-carbonyl)-3,3-dimethylpiperidine-4-carboxylic acid] the figure was 500 to 10000 nM; with `CC1(C)CN(c2ccc(CC(=O)O)cn2)CCN1C(=O)c1ccc2c(n1)C1(CN2c2ccc(Cl)c(F)c2)CC(F)(F)C1` [Example 128, 2-(6-(4-(1′-(4-chloro-3-fluorophenyl)-3,3-difluoro-1′,2′-dihydrospiro[cyclobutane-1,3′-pyrrolo[3,2-b]pyridine]-5′-carbonyl)-3,3-dimethylpiperazin-1-yl)pyridin-3-yl)acetic acid], below 500 nM. The value for `CC1(C)CN(c2ccc(Cl)c(F)c2)c2ccc(C(=O)N3CCN(C(=O)CCC(=O)O)CC3(C)C)nc21` [Example 26, 4-(4-(1-(4-chloro-3-fluorophenyl)-3,3-dimethyl-2,3-dihydro-1H-pyrrolo[3,2-b]pyridine-5-carbonyl)-3,3-dimethylpiperazin-1-yl)-4-oxobutanoic acid] was 500 to 10000 nM; that for `CC1(C)CN(c2ccc(Cl)c(F)c2)c2ccc(C(=O)N3CCCC(Nc4ccc(C(=O)O)cn4)C3)nc21` (stereo not drawn) [Example 109, 6-((1-(1-(4-chloro-3-fluorophenyl)-3,3-dimethyl-2,3-dihydro-1H-pyrrolo[3,2-b]pyridine-5-carbonyl)piperidin-3-yl)amino)nicotinic acid] was above 10000 nM; that for `CC1(C)C(=O)NCCN1C(=O)c1ccc2c(n1)C1(CCC1)CN2c1ccc(Cl)c(F)c1` [Example 126, 4-(1′-(4-chloro-3-fluorophenyl)-1′,2′-dihydrospiro[cyclobutane-1,3′-pyrrolo[3,2-b]pyridine]-5′-carbonyl)-3,3-dimethylpiperazin-2-one] was below 500 nM. As to `CC1(C)CN(c2ccc(Cl)c(F)c2)c2ccc(C(=O)N3CC[C@@H](c4ccccn4)[C@H](C(=O)O)C3)nc21` (relative stereo) [Example 138, (trans)-1-(1-(4-chloro-3-fluorophenyl)-3,3-dimethyl-2,3-dihydro-1H-pyrrolo[3,2-b]pyridine-5-carbonyl)-4-(pyridin-2-yl)piperidine-3-carboxylic acid], the IC50 is 500 to 10000 nM. The value for `CC1(C)CN(c2ccc(CC(=O)O)cn2)CCN1C(=O)c1cnc2c(n1)C1(CCC1)CN2c1ccc(Cl)c(F)c1` [Example 231, 2-(6-(4-(5′-(4-chloro-3-fluorophenyl)-5′,6′-dihydrospiro[cyclobutane-1,7′-pyrrolo[2,3-b]pyrazine]-2′-carbonyl)-3,3-dimethylpiperazin-1-yl)pyridin-3-yl)acetic acid] was below 500 nM. The value for `CC1(C)C(=O)NCCN1C(=O)c1ccc2c(n1)C1(CCCC1)C(=O)N2c1ccc(Cl)c(F)c1` [Example 2, 1′-(4-chloro-3-fluorophenyl)-5′-(2,2-dimethyl-3-oxopiperazine-1-carbonyl)spiro[cyclopentane-1,3′-pyrrolo[3,2-b]pyridin]-2′(1′H)-one] was 500 to 10000 nM; that for `Cc1cc(N2CCN(C(=O)c3cnc4c(n3)C3(CCCC3)CN4c3ccc(F)c(F)c3)C(C)(C)C2)nc(C)c1C(=O)O` [Example 223, 6-(4-(5′-(3,4-difluorophenyl)-5′,6′-dihydrospiro[cyclopentane-1,7′-pyrrolo[2,3-b]pyrazine]-2′-carbonyl)-3,3-dimethylpiperazin-1-yl)-2,4-dimethylnicotinic acid] was below 500 nM; that for `CC1(C)CN(c2ccc(Cl)c(F)c2)c2ccc(C(=O)N3CCN(c4nc(C(F)(F)F)c(C(=O)O)s4)CC3(C)C)nc21` [Example 79, 2-(4-(1-(4-chloro-3-fluorophenyl)-3,3-dimethyl-2,3-dihydro-1H-pyrrolo[3,2-b]pyridine-5-carbonyl)-3,3-dimethylpiperazin-1-yl)-4-(trifluoromethyl)thiazole-5-carboxylic acid] was below 500 nM. The value for `CC1(C)CN(c2ccc(F)cc2)c2ccc(C(=O)N3CCNC(=O)C3(C)C)nc21` [Example 15, 4-(1-(4-fluorophenyl)-3,3-dimethyl-2,3-dihydro-1H-pyrrolo[3,2-b]pyridine-5-carbonyl)-3,3-dimethylpiperazin-2-one] was below 500 nM; that for `Cc1cc(N(C)CCN(C)C(=O)c2ccc3c(n2)C(C)(C)CN3c2ccc(Cl)c(F)c2)nc(C)c1C(=O)O` [Example 50, 6-((2-(1-(4-chloro-3-fluorophenyl)-N,3,3-trimethyl-2,3-dihydro-1H-pyrrolo[3,2-b]pyridine-5-carboxamido)ethyl)(methyl)amino)-2,4-dimethylnicotinic acid] was 500 to 10000 nM; that for `CC1(C)CN(c2ccc(Cl)c(F)c2)c2ccc(C(=O)N3CCN(c4nc(C(=O)O)cs4)CC3(C)C)nc21` [Example 43, 2-(4-(1-(4-chloro-3-fluorophenyl)-3,3-dimethyl-2,3-dihydro-1H-pyrrolo[3,2-b]pyridine-5-carbonyl)-3,3-dimethylpiperazin-1-yl)thiazole-4-carboxylic acid] was below 500 nM. As to `Cc1cc(N2CCN(C(=O)c3ccc(N4CC(C)(C)c5nc(C(=O)N6CCN(c7cc(C)c(C(=O)O)c(C)n7)CC6(C)C)ccc54)nc3)C(C)(C)C2)nc(C)c1C(=O)O` [Example 133, 6-(4-(6-(5-(4-(5-carboxy-4,6-dimethylpyridin-2-yl)-2,2-dimethylpiperazine-1-carbonyl)-3,3-dimethyl-2,3-dihydro-1H-pyrrolo[3,2-b]pyridin-1-yl)nicotinoyl)-3,3-dimethylpiperazin-1-yl)-2,4-dimethylnicotinic acid], the IC50 is above 10000 nM.

Take `CC1(C)CN(c2ccc(CC(=O)O)cn2)CCN1C(=O)c1ccc2c(n1)C1(CCC1)CN2c1ccc(Cl)c(F)c1` [Example 119, 2-(6-(4-(1′-(4-chloro-3-fluorophenyl)-1′,2′-dihydrospiro[cyclobutane-1,3′-pyrrolo[3,2-b]pyridine]-5′-carbonyl)-3,3-dimethylpiperazin-1-yl)pyridin-3-yl)acetic acid]: the IC50 is below 500 nM.

The values above are taken from patent US20250320224A1 (DOMAIN THERAPEUTICS, priority 2022, published 2025).
